{"source": "patent EP0484785B1", "about": "“Use of xanthines for the preparation of a medicament effective for inhibiting the replication of human retroviruses” (HOECHST-ROUSSEL PHARMACEUTICALS INCORPORATED, priority 1990, dated 1992)", "key": {"[1]": {"tested_on": "HIV-1 LTR", "assay": "HIV-1 LTR-mediated gene expression, CAT activity in U38 cells", "type": "cell-based, human", "set-up": "CAT activity: unit not given here", "conditions": "for CAT activity: 2 days", "procedure": "Down-regulation of gene expression mediated by the HIV-1 LTR: U38 cells (Felber BK, Pavlakis GN. Science 1988, 239:184-187) were cultured in the presence or absence of 10 ng/ml phorbol-12-myristate-13-acetate (PMA). U38 cells were derived from the monocytoid human cell line U937 and contain integrated copies of the HIV-1 LTR ligated to the chloramphenicol acetyl transferase (CAT) gene. These cells have been kindly provided by Dr. Barbara Felber (National Cancer Institute, Frederick, Maryland, USA). Two hours later, the cells were washed once in phosphate-buffered saline (PBS) and cultured in the presence of various concentrations of pentoxifylline. After 2 days, cell viability was tested by trypan blue staining, and the activity of CAT was measured as described previously (Sodroski, J. et al., Science 1985, 227:171-173) after standardizing the cell extracts for protein content."}, "[2]": {"tested_on": "HIV-1", "assay": "HIV-1 replication in acutely infected Jurkat cells, reverse transcriptase activity in cell-free supernatants", "type": "cell-based", "conditions": "for Reverse Transcriptase (% control): Jurkat cells, 4 h pretreatment, 7 days", "procedure": "(§1) Human Jurkat cells (a CD4⁺ T-cell lymphoma line) were grown in RPMI-1640 supplemented with 10% fetal calf serum, penicillin, streptomycin and L-glutamine. HIV-1 was produced in Jurkat cells. During the log phase of growth, cell-free supernatant was harvested, tested for RT activity (according to the method of Dayton et al., Cell 1986, 44:941-947) and frozen in aliquots at -70°C until use. Jurkat cells were pretreated with pentoxifylline at various concentrations for 4 hours after which HIV-1 (10⁴ cpm units of RT activity) was added to the cultures. The cells remained in the appropriate concentration of pentoxifylline for a total of 7 days, at which point the RT activity was measured in cell-free supernatants. In parallel, cell viability was tested by trypan blue staining of uninfected Jurkat cells treated for 7 days with various concentrations of pentoxifylline. The results are expressed as a percent of control."}, "[3]": {"tested_on": "HIV-1", "assay": "HIV-1 replication in acutely infected peripheral blood mononuclear cells, reverse transcriptase activity in cell-free supernatants", "type": "cell-based", "conditions": "for Reverse Transcriptase (% control): PBM, 4 h pretreatment, 7 days", "procedure": "(§2) Human peripheral blood mononuclear cells (PBM) were obtained by Ficoll-Hypaque gradient centrifugation of blood donated by normal HIV-1 sero-negative individuals. PBM were cultured in RPMI-1640 supplemented with 20% fetal calf serum, penicillin, streptomycin and L-glutamine. After stimulating cells overnight with 15 µg/ml of concanavalin A, they were maintained in 10 units/ml interleukin-2 (IL-2) for the duration of the assay. To test for the inhibition of HIV-1 replication in PBM by pentoxifylline, PBM were pretreated with various concentrations of pentoxifylline for 4 hours after which HIV-1 (10⁴ cpm units of RT activity) was added to the cultures. The cells remained in the appropriate concentrations of the drug for a total of 7 days at which point the RT activity was measured in cell-free supernatants. In parallel, the cytotoxicity was analyzed by trypan blue staining of uninfected PBM treated for 7 days with various concentrations of pentoxifylline. The results are expressed as percent of untreated controls."}, "[4]": {"tested_on": "Jurkat cells", "type": "cell-based", "conditions": "human, 7 days", "procedure": "as §1"}, "[5]": {"tested_on": "peripheral blood mononuclear cells (PBM)", "type": "cell-based", "conditions": "human, 7 days", "procedure": "as §2"}}, "note": "Like-named read-outs stand apart in the source and are kept apart here."}
{"smiles": "CC(=O)CCCCn1c(=O)c2c(ncn2C)n(C)c1=O", "note": "[Pentoxifylline, pentoxifylline]", "values": [{"measurement": "CAT activity", "setting": "[1]; Phorbol ester-non-stimulated, pentoxifylline 50 micromolar", "result": 4.91}, {"measurement": "CAT activity", "setting": "[1]; Phorbol ester-non-stimulated, pentoxifylline 100 micromolar", "result": 3.75}, {"measurement": "CAT activity", "setting": "[1]; Phorbol ester-non-stimulated, pentoxifylline 500 micromolar", "result": 2.95}, {"measurement": "CAT activity", "setting": "[1]; Phorbol ester-non-stimulated, pentoxifylline 1000 micromolar", "result": 2.81}, {"measurement": "CAT activity", "setting": "[1]; Phorbol ester-stimulated (10 ng/ml PMA), pentoxifylline 50 micromolar", "result": 50.4}, {"measurement": "CAT activity", "setting": "[1]; Phorbol ester-stimulated (10 ng/ml PMA), pentoxifylline 100 micromolar", "result": 23.9}, {"measurement": "CAT activity", "setting": "[1]; Phorbol ester-stimulated (10 ng/ml PMA), pentoxifylline 500 micromolar", "result": 20.3}, {"measurement": "CAT activity", "setting": "[1]; Phorbol ester-stimulated (10 ng/ml PMA), pentoxifylline 1000 micromolar", "result": 19.5}, {"measurement": "chloramphenicol transacetylase activity (CAT)", "setting": "[1]; U38 cells, whether or not first pretreated with phorbol ester", "result": "decreased"}, {"measurement": "HIV-1 replication as measured by reverse transcriptase activity", "setting": "[2]; Jurkat cells acutely infected with HIV", "result": "decreased"}, {"measurement": "Reverse Transcriptase (% control)", "setting": "[2]; pentoxifylline 50 micromolar", "result": 84.6, "unit": "% control"}, {"measurement": "Reverse Transcriptase (% control)", "setting": "[2]; pentoxifylline 100 micromolar", "result": 72.9, "unit": "% control"}, {"measurement": "Reverse Transcriptase (% control)", "setting": "[2]; pentoxifylline 500 micromolar", "result": 69.5, "unit": "% control"}, {"measurement": "Reverse Transcriptase (% control)", "setting": "[2]; pentoxifylline 1000 micromolar", "result": 55.0, "unit": "% control"}, {"measurement": "Reverse Transcriptase (% control)", "setting": "[3]; pentoxifylline 25 micromolar", "result": 75.5, "unit": "% control"}, {"measurement": "Reverse Transcriptase (% control)", "setting": "[3]; pentoxifylline 50 micromolar", "result": 72.9, "unit": "% control"}, {"measurement": "Reverse Transcriptase (% control)", "setting": "[3]; pentoxifylline 250 micromolar", "result": 30.0, "unit": "% control"}, {"measurement": "Reverse Transcriptase (% control)", "setting": "[3]; pentoxifylline 500 micromolar", "result": 22.7, "unit": "% control"}, {"measurement": "Reverse Transcriptase (% control)", "setting": "[3]; pentoxifylline 1000 micromolar", "result": 18.6, "unit": "% control"}, {"measurement": "HIV-1 replication as measured by reverse transcriptase activity", "setting": "[3]; peripheral blood mononuclear cells acutely infected with HIV-1", "result": "decreased"}, {"measurement": "Cell viability", "setting": "[4]", "result": "> 95", "unit": "%"}, {"measurement": "Viability (% control)", "setting": "[5]; 50 micromolar", "result": 93.5, "unit": "% control"}, {"measurement": "Viability (% control)", "setting": "[5]; 500 micromolar", "result": 84.8, "unit": "% control"}, {"measurement": "Viability (% control)", "setting": "[5]; 1000 micromolar", "result": 50.0, "unit": "% control"}]}
